Measured values published in patent US20260317319A1, “NOVEL ERGOLINES AND METHODS OF TREATING MOOD DISORDERS” (Gilgamesh Pharma Inc., priority 2023, published 2026).
pKi: −log10 of the molar value. Like-named read-outs stand apart in the source and are kept apart here.

Assays:
5-HT2A receptor = 5-HT2A receptor (Homo sapiens, UniProt P28223); assay: biochemical; type: binding; set-up: expressed in transfected cells; host or cells: HEK293, stably transfected; conditions: [3H]ketanserin 1 nM; HEK293 stable cell line; 1 h, 25 °C
5-HT2A receptor, sequence (P28223 whole entry): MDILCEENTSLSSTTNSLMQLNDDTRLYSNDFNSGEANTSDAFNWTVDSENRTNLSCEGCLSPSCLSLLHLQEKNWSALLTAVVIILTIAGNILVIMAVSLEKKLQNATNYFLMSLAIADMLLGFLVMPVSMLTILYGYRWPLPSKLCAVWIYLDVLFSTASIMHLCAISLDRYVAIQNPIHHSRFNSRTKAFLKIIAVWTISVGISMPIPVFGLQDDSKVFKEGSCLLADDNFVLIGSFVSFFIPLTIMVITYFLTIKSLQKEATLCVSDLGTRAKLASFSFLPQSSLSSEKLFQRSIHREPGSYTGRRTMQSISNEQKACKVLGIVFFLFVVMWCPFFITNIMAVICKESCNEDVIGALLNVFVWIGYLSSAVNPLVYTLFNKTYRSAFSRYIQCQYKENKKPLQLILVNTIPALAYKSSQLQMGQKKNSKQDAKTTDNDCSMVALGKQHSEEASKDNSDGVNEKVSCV
Protocol: Affinity of the test compounds for the 5-HT2A receptor was determined in radioligand binding experiments with [^3H]ketanserin by WuXi AppTec (Hong Kong) Limited, using methods adapted from the literature and under conditions described in Table 1.

in vitro [1] = type: in vitro ADME, human; conditions: HLM 0.50 mg/mL, NADPH 1 mM, 1 μM compound, pH 7.4, 37° C., 60 min; for microsomal CLint / half-life: human, microsomes; for microsomal CLint: read-out: Intrinsic clearance (Clint); for half-life: read-out: half-life (t1/2)
in vitro [2] = type: in vitro ADME, mouse; conditions: MLM (male CD-1) 0.50 mg/mL, NADPH 1 mM, 1 μM compound, pH 7.4, 37° C., 60 min; for microsomal CLint / half-life: mouse, microsomes; for microsomal CLint: read-out: Intrinsic clearance (Clint); for half-life: read-out: half-life (t1/2)
Description: MLM Stability Pooled MLM from male CD-1 mice (BIOIVT M00501) were used.

in vitro [3] = type: in vitro ADME, rat; conditions: RLM (male Sprague-Dawley) 0.50 mg/mL, NADPH 1 mM, 1 μM compound, pH 7.4, 37° C., 60 min; for microsomal CLint / half-life: rat, microsomes; for microsomal CLint: read-out: Intrinsic clearance (Clint); for half-life: read-out: half-life (t1/2)
Description: RLM Stability Pooled RLM from male Sprague-Dawley rats (Xenotech R1000) were used.

[2H]C([2H])(c1cccc(OC)c1)N1C[C@@H](C(=O)N(CC)CC)C=C2c3cccc4[nH]cc(c34)C[C@H]21 [Compound 68a, (6aR,9S)—N,N-diethyl-7-((3-methoxyphenyl)methyl-d2)-4,6,6a,7,8,9-hexahydroindolo[4,3-fg]quinoline-9-carboxamide]
pKi (5-HT2A receptor): < 5.91

CN1C[C@H](C(=O)N2CCCC2)C=C2c3cccc4[nH]cc(c34)C[C@H]21 [Int22]
Intrinsic clearance (Clint) (in vitro [1]): <9.6 µL/min/mg
half-life (t1/2) (in vitro [1]): >145 min

CC[C@@H](C)NC(=O)[C@H]1C=C2c3cccc4[nH]cc(c34)C[C@H]2N(Cc2ccccc2)C1 [Compound 95a, (6aR,9S)-7-benzyl-N—((R)-sec-butyl)-4,6,6a,7,8,9-hexahydroindolo[4,3-fg]quinoline-9-carboxamide]
pKi (5-HT2A receptor): 6.91

CCN(C)C(=O)[C@H]1C=C2c3cccc4[nH]cc(c34)C[C@H]2N(CC2CCCC2)C1 [Compound 103a, (6aR,9S)-7-(cyclopentylmethyl)-N-ethyl-N-methyl-4,6,6a,7,8,9-hexahydroindolo[4,3-fg]quinoline-9-carboxamide]
pKi (5-HT2A receptor): 6.29

COc1cccc(CN2C[C@@H](C(=O)N3[C@@H](C)C[C@@H]3C)C=C3c4cccc5[nH]cc(c45)C[C@H]32)c1 [Compound 94a, ((2S,4S)-2,4-dimethylazetidin-1-yl)((6aR,9S)-7-(3-methoxybenzyl)-4,6,6a,7,8,9-hexahydroindolo[4,3-fg]quinolin-9-yl)methanone]
pKi (5-HT2A receptor): 5.92

CCN(CC)C(=O)[C@H]1C=C2c3cccc4[nH]cc(c34)C[C@H]2N(Cc2cccc3ccccc23)C1 [Compound 101a, (6aR,9S)—N,N-diethyl-7-(naphthalen-1-ylmethyl)-4,6,6a,7,8,9-hexahydroindolo[4,3-fg]quinoline-9-carboxamide]
pKi (5-HT2A receptor): 6.12

[2H]C(c1cccc(OC)c1)N1C[C@H](C(=O)N(CC)CC)C=C2c3cccc4[nH]cc(c34)C[C@H]21 (stereo partly drawn) [Compound 96, (6aR,9R)—N,N-diethyl-7-((3-methoxyphenyl)methyl-d)-4,6,6a,7,8,9-hexahydroindolo[4,3-fg]quinoline-9-carboxamide]
pKi (5-HT2A receptor): 8.40

CN(C)C(=O)[C@H]1C=C2c3cccc4[nH]cc(c34)C[C@H]2N(Cc2ccccc2)C1 [Compound 102a, (6aR,9S)-7-benzyl-N,N-dimethyl-4,6,6a,7,8,9-hexahydroindolo[4,3-fg]quinoline-9-carboxamide]
pKi (5-HT2A receptor): 6.46

CCN(CC)C(=O)[C@H]1C=C2c3cccc4[nH]cc(c34)C[C@H]2N(Cc2ccccc2C)C1 [Compound 99a, (6aR,9S)—N,N-diethyl-7-(2-methylbenzyl)-4,6,6a,7,8,9-hexahydroindolo[4,3-fg]quinoline-9-carboxamide]
pKi (5-HT2A receptor): 6.10

[2H]C(c1cccc(OC)c1)N1C[C@@H](C(=O)N(CC)CC)C=C2c3cccc4[nH]cc(c34)C[C@H]21 (stereo partly drawn) [Compound 96a, (6aR,9S)—N,N-diethyl-7-((3-methoxyphenyl)methyl-d)-4,6,6a,7,8,9-hexahydroindolo[4,3-fg]quinoline-9-carboxamide]
pKi (5-HT2A receptor): 6.00

CCN(C)C(=O)[C@H]1C=C2c3cccc4[nH]cc(c34)C[C@H]2N(Cc2ccccc2)C1 [Compound 85a, (6aR,9S)-7-benzyl-N-ethyl-N-methyl-4,6,6a,7,8,9-hexahydroindolo[4,3-fg]quinoline-9-carboxamide]
microsomal CLint (in vitro [1]): 156 µL/min/mg
half-life (in vitro [1]): 8.9 min
microsomal CLint (in vitro [2]): 848 µL/min/mg
half-life (in vitro [2]): 1.6 min
microsomal CLint (in vitro [3]): 400 µL/min/mg
half-life (in vitro [3]): 3.5 min
pKi (5-HT2A receptor): 6.29

CCCN(CC)C(=O)[C@H]1C=C2c3cccc4[nH]cc(c34)C[C@H]2N(Cc2cccc(OC)c2)C1 [Compound 93a, (6aR,9S)—N-ethyl-7-(3-methoxybenzyl)-N-propyl-4,6,6a,7,8,9-hexahydroindolo[4,3-fg]quinoline-9-carboxamide]
pKi (5-HT2A receptor): 6.64

CCN(CC)C(=O)[C@H]1C=C2c3cccc4[nH]cc(c34)C[C@H]2N(Cc2ccc(F)c(F)c2)C1 [Compound 54a, (6aR,9S)-7-(3,4-difluorobenzyl)-N,N-diethyl-4,6,6a,7,8,9-hexahydroindolo[4,3-fg]quinoline-9-carboxamide]
pKi (5-HT2A receptor): 6.54

CCN(CC)C(=O)[C@H]1C=C2c3cccc4[nH]cc(c34)C[C@H]2N(Cc2cccc(C)c2)C1 [Compound 98a, (6aR,9S)—N,N-diethyl-7-(3-methylbenzyl)-4,6,6a,7,8,9-hexahydroindolo[4,3-fg]quinoline-9-carboxamide]
pKi (5-HT2A receptor): 6.04

CC[C@@H](C)NC(=O)[C@H]1C=C2c3cccc4[nH]cc(c34)C[C@H]2N(Cc2ccccc2)C1 [Compound 88a, (6aR,9S)-7-benzyl-N—((R)-sec-butyl)-4,6,6a,7,8,9-hexahydroindolo[4,3-fg]quinoline-9-carboxamide]
microsomal CLint (in vitro [1]): 302 µL/min/mg
half-life (in vitro [1]): 4.6 min
microsomal CLint (in vitro [2]): 837 µL/min/mg
half-life (in vitro [2]): 1.7 min
microsomal CLint (in vitro [3]): 830 µL/min/mg
half-life (in vitro [3]): 1.7 min
pKi (5-HT2A receptor): 6.72

CCN(C)C(=O)[C@H]1C=C2c3cccc4[nH]cc(c34)C[C@H]2N(Cc2cccc(OC)c2)C1 [Compound 92a, (6aR,9S)—N-ethyl-7-(3-methoxybenzyl)-N-methyl-4,6,6a,7,8,9-hexahydroindolo[4,3-fg]quinoline-9-carboxamide]
pKi (5-HT2A receptor): < 5.91

[2H]C([2H])([2H])Oc1cccc(CN2C[C@H](C(=O)N(CC)CC)C=C3c4cccc5[nH]cc(c45)C[C@H]32)c1 [Compound 56, (6aR,9R)—N,N-diethyl-7-(3-(methoxy-d3)benzyl)-4,6,6,7,8,9-hexahydroindolo[4,3-fg]quinoline-9-carboxamide]
Intrinsic clearance (Clint) (in vitro [1]): 113.3 µL/min/mg
half-life (t1/2) (in vitro [1]): 12.2 min
Intrinsic clearance (Clint) (in vitro [2]): 223.3 µL/min/mg
half-life (t1/2) (in vitro [2]): 6.2 min
Intrinsic clearance (Clint) (in vitro [3]): 224.5 µL/min/mg
half-life (t1/2) (in vitro [3]): 6.2 min

C[C@H]1C[C@H](C)N1C(=O)[C@H]1C=C2c3cccc4[nH]cc(c34)C[C@H]2N(Cc2ccccc2)C1 [Compound 87a, ((6aR,9S)-7-benzyl-4,6,6a,7,8,9-hexahydroindolo[4,3-fg]quinolin-9-yl)((2S,4S)-2,4-dimethylazetidin-1-yl)methanone]
pKi (5-HT2A receptor): 5.94

COc1cccc(CN2C[C@H](C(=O)N3CCCC3)C=C3c4cccc5[nH]cc(c45)C[C@H]32)c1 [Compound 91, ((6aR,9R)-7-(3-methoxybenzyl)-4,6,6a,7,8,9-hexahydroindolo[4,3-fg]quinolin-9-yl)(pyrrolidin-1-yl)methanone]
pKi (5-HT2A receptor): 6.89

CCCN(CC)C(=O)[C@H]1C=C2c3cccc4[nH]cc(c34)C[C@H]2N(Cc2ccccc2)C1 [Compound 86a, (6aR,9S)-7-benzyl-N-ethyl-N-propyl-4,6,6a,7,8,9-hexahydroindolo[4,3-fg]quinoline-9-carboxamide]
microsomal CLint (in vitro [1]): 95.2 µL/min/mg
half-life (in vitro [1]): 14.6 min
microsomal CLint (in vitro [2]): 1010 µL/min/mg
half-life (in vitro [2]): 1.4 min
microsomal CLint (in vitro [3]): 330 µL/min/mg
half-life (in vitro [3]): 4.2 min
pKi (5-HT2A receptor): 6.17

O=C([C@H]1C=C2c3cccc4[nH]cc(c34)C[C@H]2N(Cc2ccccc2)C1)N1CCCC1 [Compound 84a, ((6aR,9S)-7-benzyl-4,6,6a,7,8,9-hexahydroindolo[4,3-fg]quinolin-9-yl)(pyrrolidin-1-yl)methanone]
microsomal CLint (in vitro [1]): 154 µL/min/mg
half-life (in vitro [1]): 9 min
microsomal CLint (in vitro [2]): 784 µL/min/mg
half-life (in vitro [2]): 1.8 min
microsomal CLint (in vitro [3]): 257 µL/min/mg
half-life (in vitro [3]): 5.4 min
pKi (5-HT2A receptor): < 5.91

CCN(CC)C(=O)[C@H]1C=C2c3cccc4[nH]cc(c34)C[C@H]2N(Cc2ccc3ccccc3c2)C1 [Compound 100a, (6aR,9S)—N,N-diethyl-7-(naphthalen-2-ylmethyl)-4,6,6a,7,8,9-hexahydroindolo[4,3-fg]quinoline-9-carboxamide]
pKi (5-HT2A receptor): < 5.91

CCN(CC)C(=O)[C@H]1C=C2c3cccc4[nH]cc(c34)C[C@H]2N(Cc2cccc(F)c2)C1 [Compound 52a, (6aR,9S)—N,N-diethyl-7-(3-fluorobenzyl)-4,6,6a,7,8,9-hexahydroindolo[4,3-fg]quinoline-9-carboxamide]
pKi (5-HT2A receptor): < 5.91

COc1cccc(CN2C[C@@H](C(=O)N3CCCC3)C=C3c4cccc5[nH]cc(c45)C[C@H]32)c1 [Compound 91a, ((6aR,9S)-7-(3-methoxybenzyl)-4,6,6a,7,8,9-hexahydroindolo[4,3-fg]quinolin-9-yl)(pyrrolidin-1-yl)methanone]
pKi (5-HT2A receptor): < 5.91

CCN(CC)C(=O)[C@@H]1C=C2c3cccc4[nH]cc(c34)C[C@H]2N(Cc2cnco2)C1 [Compound 75, (6aR,9R)—N,N-diethyl-7-(oxazol-5-ylmethyl)-4,6,6a,7,8,9-hexahydroindolo[4,3-fg]quinoline-9-carboxamide]
microsomal CLint (in vitro [1]): 35 µL/min/mg
half-life (in vitro [1]): 39.6 min
microsomal CLint (in vitro [2]): 83.1 µL/min/mg
half-life (in vitro [2]): 16.7 min
microsomal CLint (in vitro [3]): 56.3 µL/min/mg
half-life (in vitro [3]): 24.6 min
pKi (5-HT2A receptor): 7.89
